Common to all, as to assay: relative viability (nuclei count vs DMSO), 5 days (fraction); higher = more cells survive
Compound in experiment [1]: C1CC(C1)(C(=O)O)C(=O)O.[NH2-].[NH2-].[Pt+2] [Carboplatin] + Cc1cc(Nc2cc(N3CCN(C)CC3)nc(Sc3ccc(NC(=O)C4CC4)cc3)n2)n[nH]1 [Tozasertib] (partner 0.1 µM)
In outline: (§1)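 Relative viability divides the nuclei count in treated wells by that in vehicle wells. Lung cancer cell lines were seeded in 1536-well plates, dosed by pin tool the next day, and fixed and stained after 5 days in one step with final 0.05% Triton X-100, 1% formaldehyde and 1 ug/ml Hoechst. Dosing was a single drug or a fixed anchor-drug dose plus five library-drug doses (not always all listed) in √10 steps, and values are medians of duplicate plates imaged at 4×.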

Compound in experiment [2]: CC[C@H](C)N1C=C(C2=C(C=C(C=C21)C3=CN=C(C=C3)N4CCNCC4)C(=O)NCC5=C(C=C(NC5=O)C)C)C [GSK126] + CC(=O)Nc1cccc(-n2c(=O)n(C3CC3)c(=O)c3c(Nc4ccc(I)cc4F)n(C)c(=O)c(C)c32)c1 [Trametinib] (partner 0.02 µM)
Summed up: as §1

Compound in experiment [3]: CC[C@H](C)N1C=C(C2=C(C=C(C=C21)C3=CN=C(C=C3)N4CCNCC4)C(=O)NCC5=C(C=C(NC5=O)C)C)C [GSK126] + Nc1nc2[nH]cc(CCc3ccc(C(=O)N[C@@H](CCC(=O)O)C(=O)O)cc3)c2c(=O)[nH]1 [Pemetrexed] (partner 0.2 µM)
In outline:
as §1

Compound in experiment [4]: NS(=O)(=O)OC[C@@H]1C[C@@H](n2ccc3c(N[C@H]4CCc5ccccc54)ncnc32)C[C@@H]1O [MLN4924] + Cc1nc(Nc2ncc(C(=O)Nc3c(C)cccc3Cl)s2)cc(N2CCN(CCO)CC2)n1 [Dasatinib] (partner 0.075 µM)
In outline: as §1

For 201T, the relative viability in experiment [1] (first compound 0.08 µM) was 0.988; in experiment [1] (first compound 0.253 µM) it was 0.933; in experiment [1] (first compound 0.8 µM) it was 0.985; in experiment [1] (first compound 2.53 µM), 0.942; in experiment [1] (first compound 8 µM) it was 0.89; in experiment [2] (first compound 0.08 µM), 0.698. Moreover, the relative viability in experiment [2] (first compound 0.253 µM) amounted to 0.693; in experiment [2] (first compound 0.8 µM) it was 0.726; in experiment [2] (first compound 2.53 µM), 0.746; in experiment [2] (first compound 8 µM), 0.726; in experiment [3] (first compound 0.08 µM), 0.346; in experiment [3] (first compound 0.253 µM) it was 0.342. The relative viability in experiment [3] (first compound 0.8 µM) was 0.329; in experiment [3] (first compound 2.53 µM), 0.367; in experiment [3] (first compound 8 µM), 0.328; in experiment [4] (first compound 0.04 µM), 0.69; in experiment [4] (first compound 0.1265 µM), 0.615; in experiment [4] (first compound 0.4 µM), 0.598. Also, the relative viability was determined as 0.319 in experiment [4] (first compound 1.265 µM) and 0.318 in experiment [4] (first compound 4 µM).

Regarding A-427, the relative viability in experiment [1] (first compound 0.08 µM) stood at 0.188; in experiment [1] (first compound 0.253 µM), 0.237; in experiment [1] (first compound 0.8 µM), 0.238; in experiment [1] (first compound 2.53 µM), 0.219; in experiment [1] (first compound 8 µM), 0.221; in experiment [2] (first compound 0.08 µM) it was 0.845. In addition, the relative viability in experiment [2] (first compound 0.253 µM) is 0.762; in experiment [2] (first compound 0.8 µM) it was 0.712; in experiment [2] (first compound 2.53 µM), 0.757; in experiment [2] (first compound 8 µM) it was 0.795; in experiment [3] (first compound 0.08 µM), 1.03; in experiment [3] (first compound 0.253 µM), 0.937. For the same cell line, the relative viability in experiment [3] (first compound 0.8 µM) turned out to be 1.03; in experiment [3] (first compound 2.53 µM), 1.08; in experiment [3] (first compound 8 µM), 0.991; in experiment [4] (first compound 0.04 µM), 0.367; in experiment [4] (first compound 0.1265 µM), 0.529; in experiment [4] (first compound 0.4 µM), 0.248. The results for the relative viability in experiment [4] (first compound 1.265 µM) and in experiment [4] (first compound 4 µM) were 0.145 and 0.179, respectively.

Regarding ABC-1, the relative viability in experiment [1] (first compound 0.08 µM) came out at 0.208; in experiment [1] (first compound 0.253 µM), 0.201; in experiment [1] (first compound 0.8 µM), 0.164; in experiment [1] (first compound 2.53 µM), 0.186; in experiment [1] (first compound 8 µM) it was 0.207; in experiment [4] (first compound 0.04 µM), 0.426. For the same cell line, the relative viability worked out at 0.433 in experiment [4] (first compound 0.1265 µM), 0.302 in experiment [4] (first compound 0.4 µM), 0.213 in experiment [4] (first compound 1.265 µM) and 0.237 in experiment [4] (first compound 4 µM).

Regarding BEN, the relative viability in experiment [1] (first compound 0.08 µM) is 0.588; in experiment [1] (first compound 0.253 µM), 0.633; in experiment [1] (first compound 0.8 µM), 0.469; in experiment [1] (first compound 2.53 µM), 0.486; in experiment [1] (first compound 8 µM), 0.433; in experiment [2] (first compound 0.08 µM), 1.05. Moreover, the relative viability turned out to be 0.736 in experiment [2] (first compound 0.253 µM); 1.02 in experiment [2] (first compound 0.8 µM); 1.26 in experiment [2] (first compound 2.53 µM); 0.953 in experiment [2] (first compound 8 µM); 0.881 in experiment [3] (first compound 0.08 µM); 0.715 in experiment [3] (first compound 0.253 µM). Besides, the relative viability came to 0.832 in experiment [3] (first compound 0.8 µM); 0.896 in experiment [3] (first compound 2.53 µM); 0.785 in experiment [3] (first compound 8 µM); 0.309 in experiment [4] (first compound 0.04 µM); 0.252 in experiment [4] (first compound 0.1265 µM); 0.198 in experiment [4] (first compound 0.4 µM). Also, the figures for the relative viability in experiment [4] (first compound 1.265 µM) and in experiment [4] (first compound 4 µM) were 0.155 and 0.146, respectively.

Consider CAL-12T, for which the relative viability in experiment [1] (first compound 0.08 µM) was 0.338; in experiment [1] (first compound 0.253 µM), 0.289; in experiment [1] (first compound 0.8 µM) it was 0.329; in experiment [1] (first compound 2.53 µM), 0.413; in experiment [1] (first compound 8 µM) it was 0.382; in experiment [2] (first compound 0.08 µM) it was 0.407. The relative viability in experiment [2] (first compound 0.253 µM) stood at 0.366; in experiment [2] (first compound 0.8 µM), 0.311; in experiment [2] (first compound 2.53 µM) it was 0.382; in experiment [2] (first compound 8 µM), 0.348; in experiment [3] (first compound 0.08 µM), 1.31; in experiment [3] (first compound 0.253 µM), 1.37. The relative viability in experiment [3] (first compound 0.8 µM) was determined as 1.09; in experiment [3] (first compound 2.53 µM) it was 1.13; in experiment [3] (first compound 8 µM), 1.43; in experiment [4] (first compound 0.04 µM) it was 0.371; in experiment [4] (first compound 0.1265 µM) it was 0.336; in experiment [4] (first compound 0.4 µM), 0.332. Also, the relative viability in experiment [4] (first compound 1.265 µM) is 0.143; in experiment [4] (first compound 4 µM) it was 0.105.

Consider COR-L23, for which the relative viability in experiment [1] (first compound 0.08 µM) turned out to be 0.237; in experiment [1] (first compound 0.253 µM), 0.217; in experiment [1] (first compound 0.8 µM), 0.186; in experiment [1] (first compound 2.53 µM), 0.144; in experiment [1] (first compound 8 µM), 0.148; in experiment [2] (first compound 0.08 µM), 0.837. For the same cell line, the relative viability in experiment [2] (first compound 0.253 µM) was 0.563; in experiment [2] (first compound 0.8 µM), 0.499; in experiment [2] (first compound 2.53 µM), 0.557; in experiment [2] (first compound 8 µM), 0.737; in experiment [3] (first compound 0.08 µM), 0.229; in experiment [3] (first compound 0.253 µM), 0.194. Also, the relative viability in experiment [3] (first compound 0.8 µM) worked out at 0.188; in experiment [3] (first compound 2.53 µM) it was 0.185; in experiment [3] (first compound 8 µM) it was 0.183; in experiment [4] (first compound 0.04 µM) it was 0.487; in experiment [4] (first compound 0.1265 µM), 0.617; in experiment [4] (first compound 0.4 µM), 0.507. Further, the relative viability was 0.154 in experiment [4] (first compound 1.265 µM) and 0.101 in experiment [4] (first compound 4 µM).

COR-L 105: the relative viability amounted to 0.37 in experiment [1] (first compound 0.08 µM); 0.337 in experiment [1] (first compound 0.253 µM); 0.348 in experiment [1] (first compound 0.8 µM); 0.359 in experiment [1] (first compound 2.53 µM); 0.345 in experiment [1] (first compound 8 µM); 0.453 in experiment [2] (first compound 0.08 µM). Further, the relative viability came to 0.424 in experiment [2] (first compound 0.253 µM); 0.467 in experiment [2] (first compound 0.8 µM); 0.439 in experiment [2] (first compound 2.53 µM); 0.466 in experiment [2] (first compound 8 µM); 1.08 in experiment [3] (first compound 0.08 µM); 0.987 in experiment [3] (first compound 0.253 µM). Besides, the relative viability in experiment [3] (first compound 0.8 µM) was 0.887; in experiment [3] (first compound 2.53 µM), 1.11; in experiment [3] (first compound 8 µM) it was 1.12; in experiment [4] (first compound 0.04 µM) it was 0.398; in experiment [4] (first compound 0.1265 µM) it was 0.289; in experiment [4] (first compound 0.4 µM) it was 0.33. Further, the relative viability came to 0.222 in experiment [4] (first compound 1.265 µM) and 0.225 in experiment [4] (first compound 4 µM).

As for ChaGo-K-1, the relative viability in experiment [1] (first compound 0.08 µM) was determined as 0.231; in experiment [1] (first compound 0.253 µM), 0.224; in experiment [1] (first compound 0.8 µM), 0.215; in experiment [1] (first compound 2.53 µM), 0.213; in experiment [1] (first compound 8 µM) it was 0.192; in experiment [2] (first compound 0.08 µM) it was 0.902. The relative viability in experiment [2] (first compound 0.253 µM) came out at 0.986; in experiment [2] (first compound 0.8 µM), 0.888; in experiment [2] (first compound 2.53 µM) it was 0.947; in experiment [2] (first compound 8 µM) it was 0.983; in experiment [3] (first compound 0.08 µM), 0.256; in experiment [3] (first compound 0.253 µM), 0.269. Also, the relative viability stood at 0.265 in experiment [3] (first compound 0.8 µM); 0.256 in experiment [3] (first compound 2.53 µM); 0.254 in experiment [3] (first compound 8 µM); 0.414 in experiment [4] (first compound 0.04 µM); 0.376 in experiment [4] (first compound 0.1265 µM); 0.323 in experiment [4] (first compound 0.4 µM). The results for the relative viability in experiment [4] (first compound 1.265 µM) and in experiment [4] (first compound 4 µM) were 0.184 and 0.17, respectively.
